# Tested on: MV-4-11 cells
# Experiment: Gene expression microarray analysis (Affymetrix PrimeView) and GSEA
# Format: cell-based, human
# Set-up: RFU PODN (11730768_x_at) / Fold change /veh PODN (11730768_x_at) / RFU LINC00158 (11744669_a_at) / Fold change /veh LINC00158 (11744669_a_at) / RFU DUSP10 (11751237_a_at) / Fold change /veh DUSP10 (11751237_a_at) / RFU ID3 (11757404_x_at) / Fold change /veh ID3 (11757404_x_at) / RFU PLEKHG5 (11737974_s_at) / Fold change /veh PLEKHG5 (11737974_s_at) / RFU LRRC4B (11730491_at) / Fold change /veh LRRC4B (11730491_at) / RFU GIMAP4 (11747438_a_at) / Fold change /veh GIMAP4 (11747438_a_at) / RFU KRT8 (11758183_x_at) / Fold change /veh KRT8 (11758183_x_at) / RFU CNN1 (11734310_a_at) / Fold change /veh CNN1 (11734310_a_at) / RFU VPS37D (11726825_at) / Fold change /veh VPS37D (11726825_at) / RFU C10orf10 (11716522_x_at) / Fold change /veh C10orf10 (11716522_x_at) / RFU KIR2DL2 /// KIR2DL4 /// KIR2DL5A /// KIR2DL5B /// KIR2DS1 /// KIR2DS2 /// KIR2DS3 /// KIR2DS4 /// KIR3DL3 /// KIR3DL3 /// KIR3DS1 (11738374_at) / Fold change /veh KIR2DL2 /// KIR2DL4 /// KIR2DL5A /// KIR2DL5B /// KIR2DS1 /// KIR2DS2 /// KIR2DS3 /// KIR2DS4 /// KIR3DL3 /// KIR3DL3 /// KIR3DS1 (11738374_at) / RFU C1QL1 (11718748_at) / Fold change /veh C1QL1 (11718748_at) / RFU TMPRSS4 (11747572_a_at) / Fold change /veh TMPRSS4 (11747572_a_at) / RFU HAMP (11756126_x_at) / Fold change /veh HAMP (11756126_x_at) / RFU RNFT2 (11725882_a_at) / Fold change /veh RNFT2 (11725882_a_at) / RFU NR4A2 (11747474_a_at) / Fold change /veh NR4A2 (11747474_a_at) / RFU ABCC12 (11746883_a_at) / Fold change /veh ABCC12 (11746883_a_at) / RFU TMEM136 (11760407_x_at) / Fold change /veh TMEM136 (11760407_x_at) / RFU CLDN22 /// WWC2 (11732394_at) / Fold change /veh CLDN22 /// WWC2 (11732394_at) / RFU HLA-DPB1 (11760878_x_at) / Fold change /veh HLA-DPB1 (11760878_x_at) / RFU SPINT1 (11716480_a_at) / Fold change /veh SPINT1 (11716480_a_at) / RFU GAP43 (11754022_s_at) / Fold change /veh GAP43 (11754022_s_at) / RFU A4GNT (11735810_at) / Fold change /veh A4GNT (11735810_at) / RFU PRB3 (11715151_x_at) / Fold change /veh PRB3 (11715151_x_at) / RFU TUBB4B (11761932_at) / Fold change /veh TUBB4B (11761932_at) / RFU CAPN14 (11732068_a_at) / Fold change /veh CAPN14 (11732068_a_at) / RFU TMCC2 (11721928_a_at) / Fold change /veh TMCC2 (11721928_a_at) / RFU IRGQ (11745062_a_at) / Fold change /veh IRGQ (11745062_a_at) / RFU FAM174B (11720279_a_at) / Fold change /veh FAM174B (11720279_a_at) / RFU TMPRSS4 (11748680_a_at) / Fold change /veh TMPRSS4 (11748680_a_at) / RFU FAM212B (11763350_a_at) / Fold change /veh FAM212B (11763350_a_at) / RFU PLEKHG5 (11743358_a_at) / Fold change /veh PLEKHG5 (11743358_a_at) / RFU ZSCAN30 (11745921_a_at) / Fold change /veh ZSCAN30 (11745921_a_at) / RFU CMKLR1 (11741424_a_at) / Fold change /veh CMKLR1 (11741424_a_at) / RFU LOC101060620 /// MAPK8IP1 (11723275_at) / Fold change /veh LOC101060620 /// MAPK8IP1 (11723275_at) / RFU SPTSSB (11747773_x_at) / Fold change /veh SPTSSB (11747773_x_at) / RFU PRSS12 (11739890_at) / Fold change /veh PRSS12 (11739890_at) / RFU BIN1 (11741810_x_at) / Fold change /veh BIN1 (11741810_x_at) / RFU WNT11 (11732464_a_at) / Fold change /veh WNT11 (11732464_a_at) / RFU C10orf10 (11716521_a_at) / Fold change /veh C10orf10 (11716521_a_at) / RFU C5orf56 (11738089_at) / Fold change /veh C5orf56 (11738089_at) / RFU CYB561 (11721691_x_at) / Fold change /veh CYB561 (11721691_x_at) / RFU ANKRD19P (11752326_a_at) / Fold change /veh ANKRD19P (11752326_a_at) / RFU OR2T12 /// OR2T33 /// OR2T8 (11738714_s_at) / Fold change /veh OR2T12 /// OR2T33 /// OR2T8 (11738714_s_at) / RFU VCAN (11748164_a_at) / Fold change /veh VCAN (11748164_a_at) / RFU JSRP1 (11732532_at) / Fold change /veh JSRP1 (11732532_at) / RFU KRTAP10-11 (11738290_x_at) / Fold change /veh KRTAP10-11 (11738290_x_at) / RFU MYO3A (11730013_a_at) / Fold change /veh MYO3A (11730013_a_at) / RFU EBF3 (11725865_a_at) / Fold change /veh EBF3 (11725865_a_at) / RFU CAMK2N1 (11719241_x_at) / Fold change /veh CAMK2N1 (11719241_x_at) / RFU C5orf56 (11738088_a_at) / Fold change /veh C5orf56 (11738088_a_at) / RFU OLFML3 (11715873_a_at) / Fold change /veh OLFML3 (11715873_a_at) / RFU LOC100653217 /// NTM (11731650_a_at) / Fold change /veh LOC100653217 /// NTM (11731650_a_at) / RFU MAPK11 (11762145_a_at) / Fold change /veh MAPK11 (11762145_a_at) / RFU FIZ1 (11724087_x_at) / Fold change /veh FIZ1 (11724087_x_at) / RFU OASL (11726364_x_at) / Fold change /veh OASL (11726364_x_at) / RFU SOX15 (11748057_x_at) / Fold change /veh SOX15 (11748057_x_at) / RFU CD79A (11719716_a_at) / Fold change /veh CD79A (11719716_a_at) / RFU HIST1H1D (11736915_at) / Fold change /veh HIST1H1D (11736915_at) / RFU CASKIN2 (11723855_a_at) / Fold change /veh CASKIN2 (11723855_a_at) / RFU LOC730098 (11760151_x_at) / Fold change /veh LOC730098 (11760151_x_at) / RFU OR4N2 (11742367_at) / Fold change /veh OR4N2 (11742367_at) / RFU PRRT2 (11749266_a_at) / Fold change /veh PRRT2 (11749266_a_at) / RFU SNX32 (11753110_a_at) / Fold change /veh SNX32 (11753110_a_at) / RFU CDHR5 (11726645_a_at) / Fold change /veh CDHR5 (11726645_a_at) / RFU RCAN1 (11760418_a_at) / Fold change /veh RCAN1 (11760418_a_at) / RFU FAM167A (11723789_a_at) / Fold change /veh FAM167A (11723789_a_at) / RFU FAM26E (11764081_at) / Fold change /veh FAM26E (11764081_at) / RFU ISYNA1 (11749810_s_at) / Fold change /veh ISYNA1 (11749810_s_at) / RFU ACY1 (11761880_at) / Fold change /veh ACY1 (11761880_at) / RFU 11764098_at / Fold change /veh 11764098_at / RFU SAMD14 (11745864_x_at) / Fold change /veh SAMD14 (11745864_x_at) / RFU NPB (11741838_a_at) / Fold change /veh NPB (11741838_a_at) / RFU TMPRSS6 (11731388_a_at) / Fold change /veh TMPRSS6 (11731388_a_at) / RFU KRTAP10-2 (11738614_at) / Fold change /veh KRTAP10-2 (11738614_at) / RFU ARHGAP8 /// PRR5-ARHGAP8 (11727945_x_at) / Fold change /veh ARHGAP8 /// PRR5-ARHGAP8 (11727945_x_at) / RFU KRTAP5-7 /// NADSYN1 (11734609_at) / Fold change /veh KRTAP5-7 /// NADSYN1 (11734609_at) / RFU RASL12 (11751679_a_at) / Fold change /veh RASL12 (11751679_a_at) / RFU CDKN2B (11736163_a_at) / Fold change /veh CDKN2B (11736163_a_at) / RFU PRF1 (11729649_at) / Fold change /veh PRF1 (11729649_at) / RFU, ZNF638 /// ZNF638-IT1 / Fold change vs veh, ZNF638 /// ZNF638-IT1 / RFU, PANK3 / Fold change vs veh, PANK3 / RFU, SH3YL1 / Fold change vs veh, SH3YL1 / RFU, ZEB2 / Fold change vs veh, ZEB2 / RFU, NRIP1 / Fold change vs veh, NRIP1 / RFU, PTTG1IP / Fold change vs veh, PTTG1IP / RFU, CAPN2 / Fold change vs veh, CAPN2 / RFU, MED14 / Fold change vs veh, MED14 / RFU, SNORA58 / Fold change vs veh, SNORA58 / RFU, C1orf63 / Fold change vs veh, C1orf63 / RFU, LRRFIP1 / Fold change vs veh, LRRFIP1 / RFU, NDUFAF7 / Fold change vs veh, NDUFAF7 / RFU, SLC12A2 / Fold change vs veh, SLC12A2 / RFU, IBTK / Fold change vs veh, IBTK / RFU, ESF1 / Fold change vs veh, ESF1 / Fold change vs veh, TMEM50B / RFU, TAOK1 / Fold change vs veh, TAOK1 / RFU, ACBD3 / Fold change vs veh, ACBD3 / RFU, TMA16 / Fold change vs veh, TMA16 / RFU, RWDD3 / Fold change vs veh, RWDD3 / RFU, BCAT1 / Fold change vs veh, BCAT1 / RFU, EDEM3 / Fold change vs veh, EDEM3 / RFU, TMEM33 / Fold change vs veh, TMEM33 / RFU, WDR75 / Fold change vs veh, WDR75 / RFU, AHCTF1 / Fold change vs veh, AHCTF1 / RFU, TFRC / Fold change vs veh, TFRC / RFU, ZDHHC17 / Fold change vs veh, ZDHHC17 / RFU, NOM1 / Fold change vs veh, NOM1 / RFU, ARL8B / Fold change vs veh, ARL8B / RFU, ZBTB11 / Fold change vs veh, ZBTB11 / RFU, TAMM41 / Fold change vs veh, TAMM41 / RFU, KIAA1704 /// LOC100996395 / Fold change vs veh, KIAA1704 /// LOC100996395 / RFU, ING1 / Fold change vs veh, ING1 / RFU, TRMT61B / Fold change vs veh, TRMT61B / RFU, FUBP3 / Fold change vs veh, FUBP3 / RFU, TP53 / Fold change vs veh, TP53 / RFU, TNKS2 / Fold change vs veh, TNKS2 / RFU, ZFP14 / Fold change vs veh, ZFP14 / RFU, ACTR2 / Fold change vs veh, ACTR2 / RFU, PPP3R1 / Fold change vs veh, PPP3R1 / RFU, PIK3R1 / Fold change vs veh, PIK3R1 / RFU, HNRNPA1 / Fold change vs veh, HNRNPA1 / RFU, RNF170 / Fold change vs veh, RNF170 / RFU, ZNF28 / Fold change vs veh, ZNF28 / RFU, RNGTT / Fold change vs veh, RNGTT / RFU, OGT / Fold change vs veh, OGT / RFU, BRD1 / Fold change vs veh, BRD1 / RFU, MARS / Fold change vs veh, MARS / RFU, ZNF655 / Fold change vs veh, ZNF655 / RFU, FAHD1 / Fold change vs veh, FAHD1 / RFU, BDP1 / Fold change vs veh, BDP1 / RFU, LRRCC1 / Fold change vs veh, LRRCC1 / RFU, ARID1A / Fold change vs veh, ARID1A / RFU, ZNF146 / Fold change vs veh, ZNF146 / RFU, ZNF330 / Fold change vs veh, ZNF330 / RFU, GPN3 / Fold change vs veh, GPN3 / RFU, C9orf123 / Fold change vs veh, C9orf123 / RFU, N4BP2L2 / Fold change vs veh, N4BP2L2 / RFU, ARFIP1 / Fold change vs veh, ARFIP1 / RFU, FAM179B / Fold change vs veh, FAM179B / RFU, BCL10 / Fold change vs veh, BCL10 / RFU, UHRF1BP1L / Fold change vs veh, UHRF1BP1L / RFU, BET1 / Fold change vs veh, BET1 / RFU, CNOT2 / Fold change vs veh, CNOT2 / RFU, ZNF268 / Fold change vs veh, ZNF268 / Fold change vs veh, ZNF507 / RFU, DGCR2 / Fold change vs veh, DGCR2 / RFU, WDSUB1 / Fold change vs veh, WDSUB1 / Fold change vs veh, HSP90B1 /// MIR3652 / RFU, ADSS / Fold change vs veh, ADSS / RFU, GK / Fold change vs veh, GK / RFU, ZNF148 / Fold change vs veh, ZNF148 / RFU, TAF9 / Fold change vs veh, TAF9 / RFU, SLC1A5 / Fold change vs veh, SLC1A5 / RFU, SLMO2 / Fold change vs veh, SLMO2 / RFU, ABCC4 / Fold change vs veh, ABCC4 / RFU, LOC101060439 /// RAP1B / Fold change vs veh, LOC101060439 /// RAP1B / RFU, RFX7 / Fold change vs veh, RFX7 / RFU, GTPBP10 / Fold change vs veh, GTPBP10 / RFU, CNEP1R1 / Fold change vs veh, CNEP1R1 / RFU, BIVM-ERCC5 /// ERCC5 / Fold change vs veh, BIVM-ERCC5 /// ERCC5 / RFU, ILF3 / Fold change vs veh, ILF3 / RFU 11762660_at / Fold change /veh 11762660_at / RFU VCAN (11757783_s_at) / Fold change /veh VCAN (11757783_s_at) / RFU DDX43 (11728927_at) / Fold change /veh DDX43 (11728927_at) / RFU KRT8 (11758188_x_at) / Fold change /veh KRT8 (11758188_x_at) / RFU NKD1 (11759106_at) / Fold change /veh NKD1 (11759106_at) / RFU SRD5A1 (11742802_a_at) / Fold change /veh SRD5A1 (11742802_a_at) / RFU TPSAB1 /// TPSB2 (11721975_s_at) / Fold change /veh TPSAB1 /// TPSB2 (11721975_s_at) / RFU GSTM3 (11746129_a_at) / Fold change /veh GSTM3 (11746129_a_at) / RFU IL23R (11737362_x_at) / Fold change /veh IL23R (11737362_x_at) / RFU TMEM51 (11727254_a_at) / Fold change /veh TMEM51 (11727254_a_at) / RFU PIWIL2 (11732686_x_at) / Fold change /veh PIWIL2 (11732686_x_at) / RFU ORM1 (11744905_x_at) / Fold change /veh ORM1 (11744905_x_at) / RFU CCDC152 (11743942_at) / Fold change /veh CCDC152 (11743942_at) / RFU ECM1 (11717891_a_at) / Fold change /veh ECM1 (11717891_a_at) / RFU IL23R (11748794_a_at) / Fold change /veh IL23R (11748794_a_at) / RFU TNFAIP8L3 (11732012_x_at) / Fold change /veh TNFAIP8L3 (11732012_x_at) / RFU MBOAT4 (11741988_at) / Fold change /veh MBOAT4 (11741988_at) / RFU 11764193_at / Fold change /veh 11764193_at / RFU TMEM53 (11763286_at) / Fold change /veh TMEM53 (11763286_at) / RFU MAGEB2 (11727129_at) / Fold change /veh MAGEB2 (11727129_at) / RFU TMEM200A (11744735_a_at) / Fold change /veh TMEM200A (11744735_a_at) / RFU CCDC152 (11751479_a_at) / Fold change /veh CCDC152 (11751479_a_at) / RFU FAM211A (11726209_a_at) / Fold change /veh FAM211A (11726209_a_at) / RFU RGS16 (11746705_a_at) / Fold change /veh RGS16 (11746705_a_at) / RFU VCAN (11755009_s_at) / Fold change /veh VCAN (11755009_s_at) / RFU RHOB (11743442_s_at) / Fold change /veh RHOB (11743442_s_at) / RFU RGS16 (11720943_a_at) / Fold change /veh RGS16 (11720943_a_at) / RFU RGS16 (11720944_at) / Fold change /veh RGS16 (11720944_at) / RFU, VPS4B / Fold change vs veh, VPS4B / RFU, CREB1 / Fold change vs veh, CREB1 / RFU, DNAJC13 / Fold change vs veh, DNAJC13 / RFU, GNAQ / Fold change vs veh, GNAQ / RFU, CDK5R1 / Fold change vs veh, CDK5R1 / RFU, ZRANB3 / Fold change vs veh, ZRANB3 / RFU, CUL4A / Fold change vs veh, CUL4A / RFU, CCNY / Fold change vs veh, CCNY / RFU, UFL1 / Fold change vs veh, UFL1 / RFU, COG3 / Fold change vs veh, COG3 / RFU, DIAPH2 / Fold change vs veh, DIAPH2 / RFU, SKA2 / Fold change vs veh, SKA2 / RFU, AFF3 / Fold change vs veh, AFF3 / RFU, LMF1 / Fold change vs veh, LMF1 / RFU, IPO11 / Fold change vs veh, IPO11 / RFU, DFFB / Fold change vs veh, DFFB / RFU, FOXP1 / Fold change vs veh, FOXP1 / RFU, CARD8 / Fold change vs veh, CARD8 / RFU, STRN3 / Fold change vs veh, STRN3 / RFU, ADK / Fold change vs veh, ADK / RFU, RASSF2 / Fold change vs veh, RASSF2 / RFU, WIPF1 / Fold change vs veh, WIPF1 / RFU, LARP1B / Fold change vs veh, LARP1B / RFU, RASA1 / Fold change vs veh, RASA1 / RFU, RB1 / Fold change vs veh, RB1 / RFU, PPFIA1 / Fold change vs veh, PPFIA1 / RFU, MAT2A / Fold change vs veh, MAT2A / RFU, CCT5 / Fold change vs veh, CCT5 / RFU, WDR92 / Fold change vs veh, WDR92 / RFU, CUX1 / Fold change vs veh, CUX1 / RFU, TTC7A / Fold change vs veh, TTC7A / RFU, TMEM135 / Fold change vs veh, TMEM135 / RFU, DEPTOR / Fold change vs veh, DEPTOR / RFU, CPM / Fold change vs veh, CPM / RFU, DNAJB6 / Fold change vs veh, DNAJB6 / RFU, CACNA2D3 / Fold change vs veh, CACNA2D3 / RFU, DTX4 / Fold change vs veh, DTX4 / RFU, TFCP2 / Fold change vs veh, TFCP2 / RFU, GMCL1 /// GMCL1P1 / Fold change vs veh, GMCL1 /// GMCL1P1 / RFU, AEBP2 / Fold change vs veh, AEBP2 / RFU, SNHG1 /// SNORD22 /// SNORD25 /// SNORD26 /// SNORD27 /// SNORD28 /// SNORD29 /// SNORD31 / Fold change vs veh, SNHG1 /// SNORD22 /// SNORD25 /// SNORD26 /// SNORD27 /// SNORD28 /// SNORD29 /// SNORD31 / Fold change (Aza/veh), C12orf56 (ProbeSet 11735607_a_at) / Fold change (ACY-1035/veh), C12orf56 (ProbeSet 11735607_a_at) / Fold change (Aza/veh), FGFR1OP (ProbeSet 11751329_s_at) / Fold change (ACY-1035/veh), FGFR1OP (ProbeSet 11751329_s_at) / Fold change (Aza/veh), VPS36 (ProbeSet 11739960_a_at) / Fold change (ACY-1035/veh), VPS36 (ProbeSet 11739960_a_at) / RFU SYPL1 (11715823_x_at) / Fold change /veh SYPL1 (11715823_x_at) / RFU IGFBP7 (11715501_s_at) / Fold change /veh IGFBP7 (11715501_s_at) / RFU REEP3 (11722064_at) / Fold change /veh REEP3 (11722064_at) / RFU IGLL1 (11728026_x_at) / Fold change /veh IGLL1 (11728026_x_at): dose or concentration left out as unconfirmed
# Settings: ProbeSet 11728443_a_at; LIST B
compound,measurement,value
Nc1ccc(-c2cccs2)cc1NC(=O)c1ccc2c(c1)cc(C1CC1)n2CCN1CCOCC1 [ACY-1035],"RFU, TAOK1",54.83 RFU

# — article PMC5218480 (PLoS ONE, 2017)
